Values of other authors, collected in patent US20250223207A1, “COMPOSITIONS OF SUPPORTED METAL CATALYSTS AND METHODS THEREOF” (THE TEXAS A&M UNIVERSITY SYSTEM, priority 2024, published 2025).

details: PFAS compounds, Table 7

Question: Which pKa does the source give for `O=C(O)C(F)(OC(F)(F)C(F)(F)C(F)(F)F)C(F)(F)F` (stereo not shown) [HFPO-DA, hexafluoropropylene oxide dimer acid] here?
Answer: 2.84

Question: With `O=S(=O)(O)C(F)(F)C(F)(F)C(F)(F)C(F)(F)C(F)(F)C(F)(F)F` [PFHxS, perfluorohexanesulfonic acid] as the compound, how does the pKa read?
Answer: −3.32

Question: For `O=C(O)C(F)(F)C(F)(F)C(F)(F)C(F)(F)C(F)(F)C(F)(F)C(F)(F)F` [PFOA, perfluorooctanoic acid], which pKa is on record?
Answer: 1.30

Question: For `O=C(O)C(F)(F)C(F)(F)C(F)(F)C(F)(F)C(F)(F)C(F)(F)C(F)(F)C(F)(F)F` [PFNA, perfluorononanoic acid], which pKa is on record?
Answer: −0.21

Question: With `O=S(=O)(O)C(F)(F)C(F)(F)C(F)(F)C(F)(F)F` [PFBS, perfluorobutane sulfonic acid] as the compound, how does the pKa read?
Answer: −3.31

Question: Which pKa does the source give for `O=S(=O)(O)C(F)(F)C(F)(F)C(F)(F)C(F)(F)C(F)(F)C(F)(F)C(F)(F)C(F)(F)F` [PFOS, perfluoro octane sulfonic acid] here?
Answer: =<1.0

details: human bodies, oral

Question: Which “Fraction of orally taken dose metabolized” value does the source give for `COc1cc(Cc2cnc(N)nc2N)cc(OC)c1OC` [TMP, Trimethoprim] here?
Answer: 22.5%
